The values below come from patent US7445931B2, “Compositions and methods for enrichment of neural stem cells using ceramide analogs” (Bresagen, Inc., priority 2002, dated 2008).

Series [1] has as its system differentiating ES cells (NPs), PAR-4. Briefly: S18-induced apoptosis (TUNEL) in NPs after PAR-4 antisense knockdown or PAR-4-RFP overexpression. It counts as cell-based, mouse. As for the experimental part:
For construction of PAR-4-REP cDNA, RT-PCR was performed with the oligonucleotide primer pair sense 5′atggcgaccggcggctatcg3′ (SEQ ID NO:14) and antisense 5′ctaccttgtcagctgcccaacaac3′(SEQ ID NO:15), using the first strand cDNA generated from embryoid bodies (EB8 stage) as template for the amplification reaction. The primers were endowed with the restriction enzyme cleaving sites Eco47III (sense) and SaII (antisense) for ligation of the PAR-4 specific amplification product into the multiple cloning site of HcRFP, a vector that encodes a far-red shifted variant of red fluorescent protein (Clontech). Differentiating ES cells at the NP1 stage were transfected with the PAR-4-RFP construct using the lipofectamine 2000 procedure according to the manufacturer's instructions (Invitrogen). The transfected cells were incubated in DMEM F12 (50/50), supplemented with 1×N2 and 20 ng/ml FGF-2, and the TUNEL assay or immunostainings were performed after 48 hours of incubation and NP formation. For depletion of ceramide, differentiating ES cell were incubated with 25 μM fumonisin B1 or 50 nM myriocin 48 hours prior to transfection with the PAR-4-RFP vector, and the inhibitor maintained in the medium throughout the post-transfection period. For induction of apoptosis, the novel ceramide analog S18 (40-100 μM), N-acetyl sphingosine (C2-ceramide, 10-30 μM), or natural ceramide isolated from EBs (0.5-1.5 μM) was added 48 hours after transfection with the PAR-4-RFP cDNA, and the degree of apoptosis quantified after 15-20 hours using TUNEL assays with paraformaldehyde-fixed cells as described above.
(§1) Endogenous expression of PAR-4 was suppressed by transfection of differentiating ES cells at the NP1 stage with 2 nmoles (per well in 24 wells plate) of the morpholino-based antisense oligonucleotide 5′cgatagccgccggtcgccatgttcc3′(SEQ ID NO:16) (see Guo et al., 1998, Nature Med., 4:957-962; Guo et al., 2001 Brain Res, 903:13-25) following the instructions of the manufacturer (GeneTools) in 0.5 ml of serum-free DMEM/F-12, 1XN2 supplemented with 20 ng/ml FGF-2. For induction of apoptosis, the novel ceramide analog S18 (40-100), N-acetyl sphingosine (C2 ceramide, […], or natural ceramide isolated from EBs (0.5-1.5 μM) was added 48 hours after transfection with the anti-PAR-4 morpholino, and the degree of apoptosis quantified after 15-20 hours using TUNEL assays with paraformaldehyde-fixed cells as described above.

Series [2] has as its system Mouse neuroblastoma (F-11) cells. Briefly: Induction of apoptosis in mouse neuroblastoma cells (Hoechst 33258 staining). It counts as cell-based. As to conditions: 24 hours. The method, then: Mouse neuroblastoma (F-11) cells were incubated for 24 hours in 0.1, 0.2, 0.5, or 1.0 μM of laurylgallate (Aldrich). Apoptosis was determined by punctate staining of condensed nuclei with Hoechst 33258 (Sigma, […] medium for 30 minutes at room temperature).

The subject of a further series is differentiating ES cells. The experiment in a line: Apoptosis (TUNEL) in ceramide-depleted differentiating ES cells and its restoration by ceramide or analogs. Conditions: for reduction of the degree of apoptosis: EB8 and NP2 stage, 25 μM FB1 or 50 nM myriocin for 48 hours. The format is cell-based, mouse. The method, then: Fumonisin B1 (FB1) or myriocin-treated (ceramide-depleted) differentiating ES cells were incubated with natural ceramide. To prepare the natural ceramide, 50 mg of EBs or NPs were resuspended in 500 μl of water, and after phase separation with 500 μl of CHCl3/CH3OH (1:1 by vol.) the neutral lipids were recovered from the lower phase. The neutral lipids were evaporated to dryness with a gentle stream of nitrogen and redissolved in 1 ml of CHCl3. The solution was applied to a silicic acid gel column (0.5 g) and fatty acids and cholesterol washed out with another 15 ml of CHCl3 (Dasgupta and Hogan, 2001 J. Lipid Res., 42:301-308). The ceramide fraction was then eluted with 20 ml of CHCl3/acetone (9:1, by vol.), evaporated to dryness, and the residue (approximately 6 nmoles of ceramide) dissolved in 20 μl of ethanol containing 2% dodecane (vol./vol.). Aliquots of 5 μl were mixed with 1 ml of medium, yielding a final concentration of 1.5 μM natural ceramide for induction of apoptosis (Ji et al., 1995 FEBS Lett., 358:211-214).
Differentiating ES cells at the EB8 cells were dissociated and grown for 24 hours on laminin/ornithin-coated cover slips (NP1 stage) in DMEM/F12 (50/50), supplemented with 1×N2 and 20 ng/ml FGF-2. Cells were incubated for 3 hours with 10 μM bromodeoxyuridine (BrdU) and the TUNEL assay or immunostainings performed after 5 hours of incubation. For immunostaining, cells were fixed with 4% paraformaldehyde in phosphate-buffered saline (PBS). Fixed cells were permeabilized with 0.2% Triton X-100 in PBS for 5 minutes at room temperature and immunostaining performed as described previously (Bieberich et al., 2001 J. Biol. Chem., 276:44396-44404). The nuclei were stained by treatment with 2 μg/ml Hoechst 33258 in PBS for 30 minutes at room temperature. Apoptotic nuclei were stained using the fluorescein FragEL TUNEL assay according to instructions of the manufacturer (Oncogene).
The degree of apoptosis in differentiating ES cultures was determined since it was previously proposed that ceramide elevation induces apoptosis in NPs (Bieberch et al., 2001 J. Biol. Chem., 276:44396-44404). […] Apoptosis was elevated at the EB8 stage ([…]), and was highest at the NP2 stage (35+/−5%). […] Apoptosis was restored by the addition of 30 μM N-acetyl sphingosine (C2-ceramide), 80 μM of the novel ceramide analog N-oleoyl serinol (S18), or 1 μM of natural ceramide that was extracted from differentiating ES cells.

The subject of another series is PAR-4. The experiment in a line: PAR-4 immunoblot after transfection with PAR-4 antisense morpholino. The format is cell-based, mouse. As to conditions: NPs transfected with 2 nmoles morpholino. As for the experimental part: as §1
The amount of protein was determined following a modified Folin phenol reagent (Lowry) assay essentially as described in Wang and Smith (1975 Anal. Biochem., 63:414-417). Protein extracted with detergent was precipitated according to the Wessel and Fluegge method (Wessel and Flugge, 1984 Anal. Biochem, 138:141-143). SDS-PAGE was performed using the Laemmli method followed by immunoblotting (Laemmri, 1970 Nature, 227:680-685).

Series [3] has as its system differentiating ES-J1 cells. Briefly: Apoptosis (TUNEL staining, cell death) in differentiating mouse ES cells incubated with ceramide analogs. The format is cell-based. As to conditions: 15 hours with 75 μM S16 or S18, or 35 μM C2-ceramide. The method, then: In vitro neural differentiation of mouse ES cells (ES-J1, ES-D3) followed a serum deprivation protocol as described previously (Hancock, et al., 2000 Biochem. Biophys. Res. Commun., 271: 418-421). The differentiation stages are outlined in FIG. 2. Briefly, ES cells were grown on gamma-irradiated feeder fibroblasts for four days in Knockout DMEM/15% Knockout serum replacement, supplemented with ESGRO (LIF; Chemicon; Cat No. ESG1106) at a concentration of 10^3 units/ml medium. ES cells were then grown for another four days on gelatin-coated bacterial culture dishes without a fibroblast feeder layer, and were then grown for three days in Knockout DMEM/15% heat-inactivated ES qualified Fetal Bovine Serum, supplemented with 10^3 units LIF per ml of medium. Upon trypsinization, ES cells were transferred to bacterial culture dishes without gelatin, and embryoid body (EB) formation was induced for four days in Knockout DMEM/10% heat-inactivated ES qualified FBS without LIF (EB4 stage). On the fifth day, floating and loosely attached EBs were rinsed off and transferred to tissue culture dishes. The EBs were allowed to attach to the tissue culture dish surface by incubation for another 24 hours in Knockout DMEM with 10% heat-inactivated ES qualified fetal bovine serum. Neural differentiation due to serum deprivation was induced by cultivation of the EBs for three days in DME/12 (50/50), supplemented with 1×N2 (Invitrogen/Life Technologies; Cat No. 17502, dilution of 1:100) but without serum (EB8 stage). Serum-deprived EBs were then trypsinized, plated on poly-L-ornithine/laminin-coated tissue culture dishes and grown for four days in DMEM/F12 (50/50), supplemented with N2 and 10 ng/ml FGF-2, but without serum. This incubation period is referred to as neuroprogenitor (NP) stage due to commitment of neuroepithelial precursor cells to neuroprogenitor cells, and/or due to the selective expansion of neural progenitor cells in the FGF-2 containing serum-free medium. These cells have committed during the EB stages and were expanded during the NP stage. NPs grown for 48 hours upon replating of trypsinized EBs were referred to as the NP2 stage. On the fifth day of NP formation, the medium was changed to Neurobasal (Invitrogen/Life Technologies; Cat No. 21103-049), with 5% heat-inactivated FBS, and the cells were incubated for another seven days. During this time, NPs fully differentiate to glial cells and neurons. Cells cultured for 24 hours or 96 hours upon changing the medium were referred to as the D1 or D4 stage, respectively.
ES cells were cultured and differentiated to the EB4, EB8, NP2, or D4 stage following the protocol as described above. The ceramide analog S18 was dissolved in ethanol at a concentration of 100 mM and then added to the cells at a final concentration of 75 μM in medium. The cells at the EB8 stage were incubated for 48 hours in the presence of the ceramide analog and were then transplanted into mouse brains.
Differentiating ES cells were grown on cover slips and fixed with 4% paraformaldehyde in phosphate-buffered saline (PBS). Fixed cells were permeabilized with 0.5% Triton X-100 in PBS for 5 minutes at room temperature and unspecific binding sites were saturated by incubation with 3% ovalbumin in PBS for 1 hour at 37° C. The cover slips were then incubated with 5 μg/ml primary antibody (anti-ceramide clone 15B4 mouse IgM, Alexis; anti-PAR-4 rabbit IgG, Santa Cruz; anti-PCNA rabbit IgG, Santa Cruz; anti-nestin clone 401 rat IgG, BD Pharmingen) in 0.1% ovalbumin/PBS, followed by incubation with the appropriate fluorescence-labeled secondary antibody (5 μg/ml Alexa 546 conjugated anti-mouse IgG, Molecular Probes; Alexa 488 conjugated anti-rabbit IgG, Molecular Probes, Cy3 conjugated anti-mouse IgM, Jackson) for 2 hours at 37° C. The nuclei were stained by treatment with 2 μg/ml Hoechst 33258 in PBS for 30 minutes at room temperature. […]

In the case of LEHD-CHO [reference compound], the “effect of pre-incubation on apoptosis inducible with S18 or natural ceramide” value in series [1] (differentiating ES cells, caspase 9 inhibitor pre-incubation) is recorded as “suppressed apoptosis”. Compound `CCCCCCCCCCCCOC(=O)c1cc(O)c(O)c(O)c1` [laurylgallate, n-dodecyl ester of 3,4,5-trihydroxybenzoic acid] showed a cells undergoing apoptosis in series [2] (0.5 μM laurylgallate) of 50%. This compound yielded a cells undergone apoptosis in series [2] (1.0 μM laurylgallate) of 100%. `CCCCCCC(=O)CCCCCC/C=C/C[C@@H](O)[C@H](O)[C@@](N)(CO)C(=O)O` [myriocin, reference compound]: the “reduction of the degree of apoptosis” value in the series on differentiating ES cells is given as “about 50%”. Still for that read-out and setting: in the case of `CCCC[C@@H](C)[C@@H](OC(=O)C[C@@H](CC(=O)O)C(=O)O)[C@H](C[C@@H](C)C[C@H](O)CCCC[C@@H](O)C[C@H](O)[C@H](C)N)OC(=O)C[C@@H](CC(=O)O)C(=O)O` [FB1, Fumonisin B1, reference compound] it was “about 50%”. As for “PAR-4 specific antisense morpholino: morpholino-based antisense oligonucleotide 5′cgatagccgccggtcgccatgttcc3′ (SEQ ID NO:16) (antisense CGATAGCCGCCGGTCGCCATGTTCC; all phosphorodiamidate morpholino (PMO)) [reference compound]”, in the series with PAR-4, the “expression level of PAR-4 relative to untransfected cells” value is listed as “about 25%”. In addition, in series [1] (NPs transfected with PAR-4 specific antisense morpholino, then S18), the S18-induced apoptosis result was “less than 30%”.

On to `CCCCCCCCCCCCCCCC(=O)NC(CO)CO` [S16, N-(2-hydroxy-1-(hydroxymethyl)ethyl)-palmitoylamide], for which the “number of TUNEL stained cells” value came out at 45±10% in series [3] (EB8 stage) and 70±10% in series [3] (NP2 stage). `CCCCCCCCCCCCC/C=C/[C@@H](O)[C@H](CO)NC(C)=O` [C2-ceramide, N-acetyl sphingosine, reference compound]: the “dependence of apoptosis on PAR-4 expression” value with differentiating ES cells (FB1-treated cells at the NP2 stage) is listed as “only seen in cells that expressed PAR-4”. Further, the “restoration of apoptosis in FB1-treated cells” value in the series with differentiating ES cells (NP2 stage, 30 μM C2-ceramide, 80 μM S18, or 1 μM natural ceramide) is “restored”. Moreover, the “number of TUNEL stained cells” value in series [3] (EB8 stage) came to 45±10%; in series [3] (NP2 stage) it was 70±10%.
